# Measurements as given in PMC10364322, “Evaluation of chronic drug-induced electrophysiological and cytotoxic effects using human-induced pluripotent stem cell-derived cardiomyocytes (hiPSC-CMs)” (Frontiers in Pharmacology, 2023).
# Where two headings read alike, the source gives them in different places.
# Test system: hiPSC-CMs (iCell-Cardiomyocytes^2)
# How it was run: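 Spontaneous field potentials and impedance recorded by MEA at 37°C, 5% CO2 in hiPSC-CM monolayers (50 K/well, fibronectin-coated), 5-min baseline before compound; final DMSO 0.1%. Values are percent change from baseline, mean ± SD, compared with DMSO by Wilcoxon-Mann Whitney, interpreted against DMSO tolerance intervals.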
compound,measurement,setting,value
N=C(N)c1ccc(OCCCCCOc2ccc(C(=N)N)cc2)cc1 [Pentamidine],"BR (beating rate), % change from baseline","0.1 µM, 2h",-1±2%
same,"Beating below threshold, number of observations/total well numbers","0.1 µM, 2h",0/6
same,"Cessation of beating, number of observations/total well numbers","0.1 µM, 2h",0/6
same,"EAD, number of observations/total well numbers","0.1 µM, 2h",0/6
same,"FPD (field-potential duration), % change from baseline","0.1 µM, 2h",2.6±1.2%
same,"FPDc (field-potential duration corrected by beat-rate), % change from baseline","0.1 µM, 2h",2.2±1.4%
same,"Flat T-wave-like, number of observations/total well numbers","0.1 µM, 2h",0/6
same,"BR (beating rate), % change from baseline","0.1 µM, 24h",2±2%
same,"Beating below threshold, number of observations/total well numbers","0.1 µM, 24h",0/6
same,"Cessation of beating, number of observations/total well numbers","0.1 µM, 24h",0/6
same,"EAD, number of observations/total well numbers","0.1 µM, 24h",0/6
same,"FPD (field-potential duration), % change from baseline","0.1 µM, 24h",2±3.4%
same,"FPDc (field-potential duration corrected by beat-rate), % change from baseline","0.1 µM, 24h",2.8±3.1%
same,"Flat T-wave-like, number of observations/total well numbers","0.1 µM, 24h",0/6
same,"BR (beating rate), % change from baseline","0.1 µM, 48h",-4±3%
same,"Beating below threshold, number of observations/total well numbers","0.1 µM, 48h",0/6
same,"Cessation of beating, number of observations/total well numbers","0.1 µM, 48h",0/6
same,"EAD, number of observations/total well numbers","0.1 µM, 48h",0/6
same,"FPD (field-potential duration), % change from baseline","0.1 µM, 48h",7.3±1.7%
same,"FPDc (field-potential duration corrected by beat-rate), % change from baseline","0.1 µM, 48h",5.7±2%
same,"Flat T-wave-like, number of observations/total well numbers","0.1 µM, 48h",0/6
same,"BR (beating rate), % change from baseline","0.1 µM, 72h",-6±3%
same,"Beating below threshold, number of observations/total well numbers","0.1 µM, 72h",0/6
same,"Cessation of beating, number of observations/total well numbers","0.1 µM, 72h",0/6
same,"EAD, number of observations/total well numbers","0.1 µM, 72h",0/6
same,"FPD (field-potential duration), % change from baseline","0.1 µM, 72h",4.9±2.5%
same,"FPDc (field-potential duration corrected by beat-rate), % change from baseline","0.1 µM, 72h",3±2.9%
same,"Flat T-wave-like, number of observations/total well numbers","0.1 µM, 72h",0/6
same,"BR (beating rate), % change from baseline","0.1 µM, 96h",-13±3%
same,"Beating below threshold, number of observations/total well numbers","0.1 µM, 96h",0/6
same,"Cessation of beating, number of observations/total well numbers","0.1 µM, 96h",0/6
same,"EAD, number of observations/total well numbers","0.1 µM, 96h",0/6
same,"FPD (field-potential duration), % change from baseline","0.1 µM, 96h",9.2±3.1%
same,"FPDc (field-potential duration corrected by beat-rate), % change from baseline","0.1 µM, 96h",4.3±2.8%
same,"Flat T-wave-like, number of observations/total well numbers","0.1 µM, 96h",0/6
same,"BR (beating rate), % change from baseline","0.3 µM, 2h",-4±4%
same,"Beating below threshold, number of observations/total well numbers","0.3 µM, 2h",0/5
same,"Cessation of beating, number of observations/total well numbers","0.3 µM, 2h",0/5
same,"EAD, number of observations/total well numbers","0.3 µM, 2h",0/5
same,"FPD (field-potential duration), % change from baseline","0.3 µM, 2h",9.7±6.7 %
same,"FPDc (field-potential duration corrected by beat-rate), % change from baseline","0.3 µM, 2h",8±7.4%
same,"Flat T-wave-like, number of observations/total well numbers","0.3 µM, 2h",0/5
same,"BR (beating rate), % change from baseline","0.3 µM, 24h",0±3%
same,"Beating below threshold, number of observations/total well numbers","0.3 µM, 24h",0/5
same,"Cessation of beating, number of observations/total well numbers","0.3 µM, 24h",0/5
same,"EAD, number of observations/total well numbers","0.3 µM, 24h",0/5
same,"FPD (field-potential duration), % change from baseline","0.3 µM, 24h",4.6±3.3%
same,"FPDc (field-potential duration corrected by beat-rate), % change from baseline","0.3 µM, 24h",4.5±3.1%
same,"Flat T-wave-like, number of observations/total well numbers","0.3 µM, 24h",0/5
same,"BR (beating rate), % change from baseline","0.3 µM, 48h",-2±4%
same,"Beating below threshold, number of observations/total well numbers","0.3 µM, 48h",0/5
same,"Cessation of beating, number of observations/total well numbers","0.3 µM, 48h",0/5
same,"EAD, number of observations/total well numbers","0.3 µM, 48h",0/5
same,"FPD (field-potential duration), % change from baseline","0.3 µM, 48h",4.9±2.6%
same,"FPDc (field-potential duration corrected by beat-rate), % change from baseline","0.3 µM, 48h",4.1±2%
same,"Flat T-wave-like, number of observations/total well numbers","0.3 µM, 48h",0/5
same,"BR (beating rate), % change from baseline","0.3 µM, 72h",-11±4%
same,"Beating below threshold, number of observations/total well numbers","0.3 µM, 72h",0/5
same,"Cessation of beating, number of observations/total well numbers","0.3 µM, 72h",0/5
same,"EAD, number of observations/total well numbers","0.3 µM, 72h",0/5
same,"FPD (field-potential duration), % change from baseline","0.3 µM, 72h",10.5±2.1%
same,"FPDc (field-potential duration corrected by beat-rate), % change from baseline","0.3 µM, 72h",6.4±2.9%
same,"Flat T-wave-like, number of observations/total well numbers","0.3 µM, 72h",0/5
same,"BR (beating rate), % change from baseline","0.3 µM, 96h",-20±5%
same,"Beating below threshold, number of observations/total well numbers","0.3 µM, 96h",0/5
same,"Cessation of beating, number of observations/total well numbers","0.3 µM, 96h",0/5
same,"EAD, number of observations/total well numbers","0.3 µM, 96h",0/5
same,"FPD (field-potential duration), % change from baseline","0.3 µM, 96h",17.7±1.7%
same,"FPDc (field-potential duration corrected by beat-rate), % change from baseline","0.3 µM, 96h",9.3±1.9%
same,"Flat T-wave-like, number of observations/total well numbers","0.3 µM, 96h",0/5
same,time point from which physiologically relevant prolongation of FPD and FPDc was observed,1 µM,48 h
same,"BR (beating rate), % change from baseline","1 µM, 2h",-3±3%
same,"Beating below threshold, number of observations/total well numbers","1 µM, 2h",0/6
same,"Cessation of beating, number of observations/total well numbers","1 µM, 2h",0/6
same,"EAD, number of observations/total well numbers","1 µM, 2h",0/6
same,"FPD (field-potential duration), % change from baseline","1 µM, 2h",3.6±1.6%
same,"FPDc (field-potential duration corrected by beat-rate), % change from baseline","1 µM, 2h",2.5±1.7%
same,"Flat T-wave-like, number of observations/total well numbers","1 µM, 2h",0/6
same,"BR (beating rate), % change from baseline","1 µM, 24h",-7±3%
same,"Beating below threshold, number of observations/total well numbers","1 µM, 24h",0/6
same,"Cessation of beating, number of observations/total well numbers","1 µM, 24h",0/6
same,"EAD, number of observations/total well numbers","1 µM, 24h",0/6
same,"FPD (field-potential duration), % change from baseline","1 µM, 24h",8±1%
same,"FPDc (field-potential duration corrected by beat-rate), % change from baseline","1 µM, 24h",5.5±1.6%
same,"Flat T-wave-like, number of observations/total well numbers","1 µM, 24h",0/6
same,"BR (beating rate), % change from baseline","1 µM, 48h",-16±3 %
same,"Beating below threshold, number of observations/total well numbers","1 µM, 48h",0/6
same,"Cessation of beating, number of observations/total well numbers","1 µM, 48h",0/6
same,"EAD, number of observations/total well numbers","1 µM, 48h",0/6
same,"FPD (field-potential duration), % change from baseline","1 µM, 48h",21.1±3.4 %
same,"FPDc (field-potential duration corrected by beat-rate), % change from baseline","1 µM, 48h",14.3±2.3 %
same,"Flat T-wave-like, number of observations/total well numbers","1 µM, 48h",0/6
same,"BR (beating rate), % change from baseline","1 µM, 72h",-30±2 %
same,"Beating below threshold, number of observations/total well numbers","1 µM, 72h",0/6
same,"Cessation of beating, number of observations/total well numbers","1 µM, 72h",0/6
same,"EAD, number of observations/total well numbers","1 µM, 72h",0/6
same,"FPD (field-potential duration), % change from baseline","1 µM, 72h",54.7±5.4 %
same,"FPDc (field-potential duration corrected by beat-rate), % change from baseline","1 µM, 72h",37.5±4.3 %
same,"Flat T-wave-like, number of observations/total well numbers","1 µM, 72h",0/6
same,"BR (beating rate), % change from baseline","1 µM, 96h",-30±5 %
same,"Beating below threshold, number of observations/total well numbers","1 µM, 96h",0/6
same,"Cessation of beating, number of observations/total well numbers","1 µM, 96h",0/6
same,"EAD, number of observations/total well numbers","1 µM, 96h",0/6
same,"FPD (field-potential duration), % change from baseline","1 µM, 96h",71.5±10.4 %
same,"FPDc (field-potential duration corrected by beat-rate), % change from baseline","1 µM, 96h",52.5±8.8 %
same,"Flat T-wave-like, number of observations/total well numbers","1 µM, 96h",0/6
same,time point from which physiologically relevant prolongation of FPD and FPDc was observed,3 µM,24 h
same,"BR (beating rate), % change from baseline","3 µM, 72h",-54±5 %
same,"Beating below threshold, number of observations/total well numbers","3 µM, 72h",0/6
same,"Cessation of beating, number of observations/total well numbers","3 µM, 72h",3/6
same,"EAD, number of observations/total well numbers","3 µM, 72h",2/6
same,"FPD (field-potential duration), % change from baseline","3 µM, 72h",224.5±68 %
same,"FPDc (field-potential duration corrected by beat-rate), % change from baseline","3 µM, 72h",156.4±52.5 %
same,"Flat T-wave-like, number of observations/total well numbers","3 µM, 72h",1/6
same,"cessation of beating, wells/total wells","3 µM, 72h",3/6
same,"Beating below threshold, number of observations/total well numbers","3 µM, 96h",1/6
same,"Cessation of beating, number of observations/total well numbers","3 µM, 96h",5/6
same,"EAD, number of observations/total well numbers","3 µM, 96h",0/6
same,"Flat T-wave-like, number of observations/total well numbers","3 µM, 96h",0/6
same,"cessation of beating, wells/total wells","3 µM, 96h",6/6
same,"BR (beating rate), % change from baseline","3 µM, 2h",-2±3%
same,"Beating below threshold, number of observations/total well numbers","3 µM, 2h",0/6
same,"Cessation of beating, number of observations/total well numbers","3 µM, 2h",0/6
same,"EAD, number of observations/total well numbers","3 µM, 2h",0/6
same,"FPD (field-potential duration), % change from baseline","3 µM, 2h",3.6±1.9%
same,"FPDc (field-potential duration corrected by beat-rate), % change from baseline","3 µM, 2h",2.7±2.1%
same,"Flat T-wave-like, number of observations/total well numbers","3 µM, 2h",0/6
same,"BR (beating rate), % change from baseline","3 µM, 24h",-18±8 %
same,"Beating below threshold, number of observations/total well numbers","3 µM, 24h",0/6
same,"Cessation of beating, number of observations/total well numbers","3 µM, 24h",0/6
same,"EAD, number of observations/total well numbers","3 µM, 24h",0/6
same,"FPD (field-potential duration), % change from baseline","3 µM, 24h",23.4±11.8 %
same,"FPDc (field-potential duration corrected by beat-rate), % change from baseline","3 µM, 24h",15.2±8%
same,"Flat T-wave-like, number of observations/total well numbers","3 µM, 24h",0/6
same,"BR (beating rate), % change from baseline","3 µM, 48h",-30±8 %
same,"Beating below threshold, number of observations/total well numbers","3 µM, 48h",0/6
same,"Cessation of beating, number of observations/total well numbers","3 µM, 48h",0/6
same,"EAD, number of observations/total well numbers","3 µM, 48h",0/6
same,"FPD (field-potential duration), % change from baseline","3 µM, 48h",73.1±39.4 %
same,"FPDc (field-potential duration corrected by beat-rate), % change from baseline","3 µM, 48h",52.6±30.7 %
same,"Flat T-wave-like, number of observations/total well numbers","3 µM, 48h",0/6
same,concentration from which prolongation of FPD and EAD-like events were induced,time- and dose-dependent,1000 nM
